System: Saccharomyces cerevisiae ABC16-Green Monster
Settings: 18 h; 30 °C; YPD
Summary of the method: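 Growth of the drug-sensitive yeast strain S. cerevisiae ABC16-Green Monster was followed by OD600 at 0 h and 18 h after log-phase YPD cultures (200 µl per well, 96-well plates) were exposed at 30 °C to compound at final concentrations of 0.1–150 μM in eight 1:2 steps, in biological duplicate. Untreated cultures were run in parallel. Background-subtracted readings were fitted in GraphPad Prism with a variable-slope log(inhibitor) versus response model to give IC50.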

| SMILES | IC50 growth inhibition [µM] |
| --- | --- |
| CNCCC(Oc1ccc(C(F)(F)F)cc1)c1ccccc1 (centres undefined) | 48.3 |
| Cc1cc(N(C)Cc2ccccc2Br)nc(N)n1 | 52.6 |
| CCCCc1ccc(C(=O)Nc2nccc3ccccc23)nc1 | 54.7 |
| OCc1ccc(-c2cncc(Nc3cccc(Cl)c3)c2)cc1 | 6.31 |
| CCOC(=O)NC(=O)c1ccsc1NC(=O)c1nc2ccccc2s1 | 34.6 |
| O=C1CCc2ccc(OCCCCN3CCN(c4cccc(Cl)c4Cl)CC3)cc2N1 [Aripiprazole] | 9.31 |
| O=C(Nc1cccc(C(F)(F)F)c1)c1cc(Cl)ccc1O | 4.18 |
| CNc1ncc2cc(-c3cc(NC(=O)NCCC(C)(C)C)c(F)cc3C)c(C)nc2n1 [DP-4978] | > 150 |
| N=C(N)c1ccc(OCCCCCOc2ccc(C(=N)N)cc2)cc1 [Pentamidine] | 85.9 |
| Cc1nc(NC(=O)c2csc(NC3CCCC3)n2)sc1C | 12.4 |
| O=C1NC(=O)C(c2cnc3ccccn23)=C1c1cn2c3c(cc(F)cc13)CN(C(=O)N1CCCCC1)CC2 | > 75 |
| CCOc1ccc(-c2nc(CNCCc3ccc(F)cc3)cs2)cc1 | 42.5 |
| OC(c1cc(C(F)(F)F)nc2c(C(F)(F)F)cccc12)C1CCCCN1 (centres undefined) [Mefloquine] | 29.9 |
| Cc1cc(C(=O)NCCSc2ccccc2)c(C)n1C(C)C | 60.5 |
| CC(C)Sc1cccc(C(=O)Nc2nnc(-c3ccnn3C(C)C)o2)c1 [CBR113] | 2.48 |
| CC(C)c1cc(NCCCN2CCOCC2)n2ncc(-c3ccccc3)c2n1 | 25.1 |
| Cc1ccc(CNc2ncnc3sccc23)cc1 | 13.4 |
| Clc1cccc(C(c2ccc(CN3CCNCC3)cc2)n2ccnc2)c1 (centres undefined) | 28.7 |
| CCOC(=O)c1c(NC(=O)CNCc2ccccn2)sc(CC)c1C | 47.8 |
| N=C(N)c1ccc(OCCCCCOc2ccc(C(=N)N)cc2)cc1 | 83.8 |
| CC1C=CC=CCCC=CC=CC=CC=CC(OC2OC(C)C(O)C(N)C2O)CC2OC(O)(CC(O)C(O)CCC(O)CC(O)CC(O)CC(=O)OC(C)C(C)C1O)CC(O)C2C(=O)O (centres undefined) [Nystatin] | > 75 |
| CCc1c(C(=O)Nc2nc(C)cs2)cnn1-c1cccc(Cl)c1 | 30.5 |
| COc1ccc(C2CC(c3cccs3)=NN2C(=O)c2ccco2)cc1OC (centres undefined) | 83.6 |

| SMILES | IC50 growth inhibition [µM] |
| --- | --- |
| O=C1Nc2ccc(F)cc2/C1=N/NC(=S)NC1CC2C=CC1C2 (centres undefined) | 55.9 |
| COc1ccc(C2c3ccc4ccccc4c3Oc3ncn(CCCN(C)C)c(=N)c32)cc1 (centres undefined) | 28.9 |
| Nc1ccc2ncnc(Nc3ccc(OCc4cccc(F)c4)c(Cl)c3)c2c1 | 18.7 |
| COc1ccc(/C=C/c2ccc3c(Cl)cc(Cl)c(O)c3n2)cc1 | 22.3 |
| COC1=CC(=O)CC(C)C12Oc1c(Cl)c(OC)cc(OC)c1C2=O (centres undefined) [Griseofulvin] | > 75 |
| CCCCCc1nnc(NC(=O)c2nccnc2N)s1 | 74.2 |
| CSc1nc2cc(Oc3cccc(Cl)c3Cl)c(Cl)cc2[nH]1 [Triclabendazole] | 6.29 |
| CN1CCC(NCc2cccc(-c3ccc(S(=O)(=O)NCc4ccccc4)cc3)c2)CC1 | 50.8 |
| CCN(CC)C(=S)SSC(=S)N(CC)CC [Disulfiram] | 52.9 |
| NCCN(C(=O)c1ccc(Cl)cc1Cl)c1ccc(OCc2ccc(Cl)cc2)cc1 | 10.5 |
| CCCCCCCCCCCCCCCCCCOCC(COP(=O)([O-])OCC[N+](C)(C)C)OC (centres undefined) [Edelfosine] | 29.1 |
| N#C/C(=C\c1cn(Cc2ccccc2)nc1-c1cccnc1)c1nc2ccccc2[nH]1 | 138 |
| CCC(C)n1ncn(-c2ccc(N3CCN(c4ccc(OCC5COC(Cn6cncn6)(c6ccc(Cl)cc6Cl)O5)cc4)CC3)cc2)c1=O (centres undefined) [Itraconazole] | 7.53 |
| CC1C=CC=CC=CC=CC=CC=CC=CC(OC2OC(C)C(O)C(N)C2O)CC2OC(O)(CC(O)CC(O)C(O)CCC(O)CC(O)CC(=O)OC(C)C(C)C1O)CC(O)C2C(=O)O (centres undefined) [Amphotericin B] | 63.3 |
| CC[C@@H]([C@H](C)O)n1ncn(-c2ccc(N3CCN(c4ccc(OC[C@@H]5CO[C@@](Cn6cncn6)(c6ccc(F)cc6F)C5)cc4)CC3)cc2)c1=O | 50 |
| CC(C)/N=c1\cc2n(-c3ccc(Cl)cc3)c3ccccc3nc-2cc1Nc1ccc(Cl)cc1 [Clofazimine] | 5.81 |
| CNS(=O)(=O)c1ccc(C(=O)Nc2ccc(Nc3ccccc3)cc2)o1 | 92.5 |
| CNC1CC2OC(C)(C1OC)n1c3ccccc3c3c4c(c5c6ccccc6n2c5c31)C(=O)NC4 (centres undefined) [Staurosporine] | 0.206 |
| COc1cc(C=Cc2ccc(O)cc2)cc(OC)c1 [Pterostilbene] | 29.4 |
| CS(=O)(=O)Nc1nc(-c2ccccn2)nc2scc(-c3ccccc3)c12 | 13.8 |
| CCOc1ccc(Oc2ccc(S(=O)(=O)NC(C)c3ccncc3)cc2)cc1 (centres undefined) | 51.1 |
| Cc1cc(C(=O)Cn2c(CO)nc3ccccc32)c(C)n1-c1ccccc1 | 62.4 |
| C(#Cc1ccc(-c2cc[nH]n2)s1)c1ccccc1 | 18.9 |

| SMILES | IC50 growth inhibition [µM] |
| --- | --- |
| O=CN(O)CCCP(=O)(O)O [Fosmidomycin] | > 75 |
| CN(C(=O)c1cc2c(-c3cncnc3)cccc2[nH]1)c1ccccc1 | 26.3 |
| CCOc1cccc2sc(N(Cc3cccnc3)C(=O)C3CCCCC3)nc12 | 25.7 |
| Cc1ccc2nc(-c3ccc(N(C)C)cc3)[nH]c2c1 | 11.8 |
| Cc1ccc(Nc2nc(N)nc(CN(C)Cc3nc(=O)c4ccccc4[nH]3)n2)cc1 | 32.3 |
| Cc1cc(Nc2ccc(OCc3ccccc3)cc2)nc2cc(O)ccc12 | 2.38 |
| CN1CCN(S(=O)(=O)c2ccc(-c3ccc4c(Nc5ncc(Cl)cn5)ccnc4c3)cc2)CC1 | 43.4 |
| CN1CCN(CCCN2c3ccccc3Sc3ccc(Cl)cc32)CC1 [Prochlorperazine] | 28.6 |
| c1ccc(Oc2ccc(-c3cc(C4CCOCC4)[nH]n3)cc2)cc1 | 55.6 |
| O=C(CCCCCCC(=O)Nc1ccccc1)NO [Vorinostat] | > 75 |
| O=C(Nc1ccc2c(c1)B(O)OC2)c1ccccc1C(F)(F)F | 1.72 |
| CC(C)(C)n1nc(Cc2cccc3ccccc23)c2c(N)ncnc21 | 27.6 |
| Cc1cc(NC(=O)C(C)C)n(-c2nc(C)c(C)c(=O)[nH]2)n1 | 3.87 |
| OC1=C2C(=Nc3ccccc3SC2c2ccco2)c2ccccc21 (centres undefined) [GNF-Pf-4283] | 11 |
| N#C/C(=N\Nc1cc(C(F)(F)F)cc(C(F)(F)F)c1)S(=O)(=O)c1cccs1 | 99 |
| COc1ccccc1C(C)NCC(=O)Nc1cc(C(F)(F)F)ccc1Cl (centres undefined) | 32.4 |
| O=C(Nc1cc(Oc2cc(F)c(NC(=O)C3(C(=O)Nc4ccc(F)cc4)CC3)cc2F)ccn1)C1CC1 [Altiratinib] | > 75 |
| CC1=Nn2cc(-c3ccccc3)nc2SC1c1ccccc1 (centres undefined) | 64.2 |
| O=C(COc1cccc(F)c1)Nc1nc(-c2ccccn2)cs1 | 35.1 |
| OC(CNC1CCCCC1)Cn1c2ccc(I)cc2c2cc(I)ccc21 (centres undefined) | 3.98 |
| Oc1ccc(C(=C(Cl)Cl)c2ccc(O)cc2)cc1 | 6.96 |
| CC(=O)N(C1=C(N2CCOCC2)C(=O)c2ccccc2C1=O)c1ccc(I)cc1 [GNF-Pf-3703] | 7.31 |
| Cc1cc(=O)[nH]c(-n2nc(C3CC3)cc2NC(=O)C2(c3ccc(Cl)cc3)CCCC2)n1 [CBR668] | 1.93 |

| SMILES | IC50 growth inhibition [µM] |
| --- | --- |
| COc1cc(-c2cc(-c3ccc(S(C)(=O)=O)cc3)cnc2N)ccc1O | 22 |
| O=c1c2ccccc2[nH]c2ccc(I)cc12 [GNF-Pf-4577] | > 150 |
| CCc1ccc(Nc2cc(C)c3ccc(O)cc3n2)cc1 | 2.09 |
| C=C1[C@@H](C)[C@H]2[C@H](Cc3ccccc3)NC(=O)[C@]23OC(=O)/C=C/[C@H](O)CCC[C@@H](C)C/C=C/[C@H]3[C@@H]1O [Cytochalasin B] | > 75 |
| O=C(NC1CC1)c1ccc(N2CCOc3ccc(Cl)cc32)s1 | 32.6 |
| O=C(O)c1ccc2c(c1)nc(Nc1cccc(Cl)c1)c1ccncc12 [Silmitasertib] | > 75 |
| Cc1ccc(NC(=O)c2ccc(CN3CCN(C)CC3)cc2)cc1Nc1nccc(-c2cccnc2)n1 [Imatinib] | > 75 |
| COc1ccc(Nc2nc(NCc3ccccc3)c3ccccc3n2)cc1 | 7.72 |
| CC(C)(C)c1ccc(NC(=O)c2ccc[nH]c2=S)cc1 | 25.4 |
| CN(CC1COc2ccccc2O1)C(=O)Nc1nc2ccccc2s1 (centres undefined) | 48 |
| COC(=O)C1=C(C)NC(C)=C(C(=O)OC(C)C)C1c1cccc2nonc12 (centres undefined) | 65.4 |
| c1ccc(-c2nc(NC3CCCCC3)cc(C3CC3)n2)nc1 | 44.5 |
| CC(C)c1ccc(/C=C2\CCc3c2nc2ccccc2c3C(=O)O)cc1 | 19.9 |
| COc1cc(C)c2c(Oc3cccc(C(F)(F)F)c3)c(OC)cc(NC(C)CCCN)c2n1 (centres undefined) [Tafenoquine] | 101 |
| CCOC(=O)c1c(NC(=O)c2c(F)c(F)c(F)c(F)c2F)sc(C(N)=O)c1C | 47.8 |
| CC(C)=CCC/C(C)=C\CNCCNC1C2CC3CC(C2)CC1C3 (centres undefined) | 18.2 |
| CN(Cc1nc(N)c2c3c(sc2n1)CCCC3)Cc1cccs1 | 107 |
| CC(C)Cn1c2c(c(O)c(C(=O)Nc3ncccc3O)c1=O)CCCC2 [CBR572] | 46.9 |
| Cc1c(C)n(CCCN(C)C)c2ncn3nc(COc4ccccc4)nc3c12 | 39.6 |
| CCOc1ccc(C(=O)CN(C#N)C(=O)c2ccccc2)cc1 | 25 |

Reference: the supplement of paper PMC8837787
